Assay results: paper PMC8539420, “Discovery of a Potent and Selective JNK3 Inhibitor with Neuroprotective Effect Against Amyloid β-Induced Neurotoxicity in Primary Rat Neurons” (International Journal of Molecular Sciences, 2021)

Tests used:
BRAF (V599E) = target: T1, BRAF (V599E) (Homo sapiens, UniProt P15056, V600E); test: Kinase panel screening 1 μM; format: biochemical; conditions: read-out: enzymatic inhibition BRAF (V599E)
T1 construct: purchased Reaction Biology Corp. (Kinase HotSpot)

c-jun = test: Amyloid-β-induced JNK activation (c-jun phosphorylation) in neurons; format: cell-based; conditions: rat primary cortical neurons
Source text: (§1) To establish whether the derived selective JNK3 inhibitor actually has the ability to protect neurons from amyloid β-induced neuronal cell death, which is known as the pathogenesis of Alzheimer’s disease, we performed cytotoxicity experiments using Aβ 42, which is known as the most toxic fragment of the amyloid protein. The amyloid-β is known to mainly cause apoptosis during cell death, so it was confirmed whether the derived selective JNK3 inhibitors affect the activation (cleavage) of caspase-3, which are apoptosis-related signaling substances. […] This means that selective JNK3 inhibitors can inhibit apoptosis signaling by amyloid-β in neurons, thereby inhibiting apoptosis. Additionally, we confirmed that JNK activation was induced by amyloid-β in neurons, and the derived selective JNK3 inhibitors could inhibit JNK activation induced by amyloid-β. […] Then, the experiments for JNK3 inhibitors’ effect on the viability of neurons were conducted for five 6-dihydroxy benzimidazoles (35a-35e) by comparing it with previously published resveratrol as a positive control. On the 5th day of rat primary cortical neuron differentiation, each compound was pre-treated for 90 min and then treated with 10 μM Aβ 42 (HIFP-treated) for 24 or 48 h, and cell viability was measured by MTT assay. […]

IGF1R = target: T2, IGF1R (Homo sapiens, UniProt P08069); test: Kinase panel screening 1 μM; format: biochemical; conditions: read-out: enzymatic inhibition IGF1R
T2 construct: purchased Reaction Biology Corp. (Kinase HotSpot)

ALK = target: T3, ALK (Homo sapiens, UniProt Q9UM73); test: Kinase panel screening 1 μM; format: biochemical; conditions: read-out: enzymatic inhibition ALK
T3 construct: purchased Reaction Biology Corp. (Kinase HotSpot)

PKA = target: T4, PKA (Homo sapiens, UniProt P17612); test: Kinase panel screening 1 μM; format: biochemical; conditions: read-out: enzymatic inhibition PKA
T4 construct: purchased Reaction Biology Corp. (Kinase HotSpot)

c-Src = target: T5, c-Src (Homo sapiens, UniProt P12931); test: Kinase panel screening 1 μM; format: biochemical; conditions: read-out: enzymatic inhibition c-Src
T5 construct: purchased Reaction Biology Corp. (Kinase HotSpot)

TYRO3/SKY = target: T6, TYRO3/SKY (Homo sapiens, UniProt Q06418); test: Kinase panel screening 1 μM; format: biochemical; conditions: read-out: enzymatic inhibition TYRO3/SKY
T6 construct: purchased Reaction Biology Corp. (Kinase HotSpot)

ABL1 = target: T7, ABL1 (Homo sapiens, UniProt P00519); test: Kinase panel screening 1 μM; format: biochemical; conditions: read-out: enzymatic inhibition ABL1
T7 construct: purchased Reaction Biology Corp. (Kinase HotSpot)

FGFR3 = target: T8, FGFR3 (Homo sapiens, UniProt P22607); test: Kinase panel screening 1 μM; format: biochemical; conditions: read-out: enzymatic inhibition FGFR3
T8 construct: purchased Reaction Biology Corp. (Kinase HotSpot)

GSK3β = target: T9, GSK3β (Homo sapiens, UniProt P49841); test: Kinase HotSpot assay, GSK3β; format: biochemical
T9 construct: purchased Reaction Biology Corp

caspase-3 = test: Western blot of amyloid-β-induced caspase-3 activation (cleavage) in neurons; format: cell-based, rat; conditions: pre-treated 90 minutes, 10 μM amyloid-β1-42 24 hours
Source text: as §1

JAK3 = target: T10, JAK3 (Homo sapiens, UniProt P52333); test: Kinase panel screening 1 μM; format: biochemical; conditions: read-out: enzymatic inhibition JAK3
T10 construct: purchased Reaction Biology Corp. (Kinase HotSpot)

c-MER = target: T11, c-MER (Homo sapiens, UniProt Q12866); test: Kinase panel screening 1 μM; format: biochemical; conditions: read-out: enzymatic inhibition c-MER
T11 construct: purchased Reaction Biology Corp. (Kinase HotSpot)

EGFR = target: T12, EGFR (Homo sapiens, UniProt P00533); test: Kinase panel screening 1 μM; format: biochemical; conditions: read-out: enzymatic inhibition EGFR
T12 construct: purchased Reaction Biology Corp. (Kinase HotSpot)

KDR/VEGFR2 = target: T13, KDR/VEGFR2 (Homo sapiens, UniProt P35968); test: Kinase panel screening 1 μM; format: biochemical; conditions: read-out: enzymatic inhibition KDR/VEGFR2
T13 construct: purchased Reaction Biology Corp. (Kinase HotSpot)

MEK1 = target: T14, MEK1 (Homo sapiens, UniProt Q02750); test: Kinase panel screening 1 μM; format: biochemical; conditions: read-out: enzymatic inhibition MEK1
T14 construct: purchased Reaction Biology Corp. (Kinase HotSpot)

CDK1/cyclin A = target: T15, CDK1/cyclin A (Homo sapiens, UniProt P06493); test: Kinase panel screening 1 μM; format: biochemical; conditions: read-out: enzymatic inhibition CDK1/cyclin A
T15 construct: purchased Reaction Biology Corp. (Kinase HotSpot)

c-MET = target: T16, c-MET (Homo sapiens, UniProt P08581); test: Kinase panel screening 1 μM; format: biochemical; conditions: read-out: enzymatic inhibition c-MET
T16 construct: purchased Reaction Biology Corp. (Kinase HotSpot)

JNK1 = target: T17, JNK1 (Homo sapiens, UniProt P45983); test: Kinase HotSpot assay, JNK1; format: biochemical
T17 construct: purchased Reaction Biology Corp
T17 sequence (P45983 whole entry): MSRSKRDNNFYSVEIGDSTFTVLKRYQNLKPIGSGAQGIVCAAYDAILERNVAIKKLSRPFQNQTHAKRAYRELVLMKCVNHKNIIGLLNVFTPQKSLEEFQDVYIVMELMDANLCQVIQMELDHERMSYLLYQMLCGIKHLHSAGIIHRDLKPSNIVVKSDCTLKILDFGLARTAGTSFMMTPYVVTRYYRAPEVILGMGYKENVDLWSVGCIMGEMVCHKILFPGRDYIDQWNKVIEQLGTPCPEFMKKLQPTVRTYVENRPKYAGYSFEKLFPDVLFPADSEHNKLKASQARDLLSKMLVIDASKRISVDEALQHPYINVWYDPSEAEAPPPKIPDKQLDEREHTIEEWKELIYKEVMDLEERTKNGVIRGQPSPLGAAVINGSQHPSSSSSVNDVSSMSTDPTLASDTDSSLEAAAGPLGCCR

T9 sequence (P49841 whole entry): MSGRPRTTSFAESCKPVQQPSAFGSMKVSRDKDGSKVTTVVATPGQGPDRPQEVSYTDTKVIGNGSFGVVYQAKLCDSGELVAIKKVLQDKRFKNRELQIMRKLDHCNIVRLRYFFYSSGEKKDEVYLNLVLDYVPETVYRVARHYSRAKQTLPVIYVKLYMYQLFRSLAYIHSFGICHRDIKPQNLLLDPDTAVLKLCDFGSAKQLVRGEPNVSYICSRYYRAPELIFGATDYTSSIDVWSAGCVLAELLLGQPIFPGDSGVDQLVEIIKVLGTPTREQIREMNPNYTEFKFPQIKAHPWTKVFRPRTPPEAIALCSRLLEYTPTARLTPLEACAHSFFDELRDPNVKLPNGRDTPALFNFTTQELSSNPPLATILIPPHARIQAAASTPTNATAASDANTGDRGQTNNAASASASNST
T1 sequence (P15056 416-766 V600E limits assumed): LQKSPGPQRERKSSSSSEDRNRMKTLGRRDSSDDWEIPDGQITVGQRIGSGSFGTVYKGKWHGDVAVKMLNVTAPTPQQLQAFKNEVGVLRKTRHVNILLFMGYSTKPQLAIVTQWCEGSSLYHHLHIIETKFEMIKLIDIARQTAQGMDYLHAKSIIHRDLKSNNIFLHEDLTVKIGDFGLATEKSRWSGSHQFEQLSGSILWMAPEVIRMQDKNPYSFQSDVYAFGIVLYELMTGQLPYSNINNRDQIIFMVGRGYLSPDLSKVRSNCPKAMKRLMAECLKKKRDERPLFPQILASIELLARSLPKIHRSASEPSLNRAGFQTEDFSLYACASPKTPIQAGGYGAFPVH
T3 sequence (Q9UM73 19-1620): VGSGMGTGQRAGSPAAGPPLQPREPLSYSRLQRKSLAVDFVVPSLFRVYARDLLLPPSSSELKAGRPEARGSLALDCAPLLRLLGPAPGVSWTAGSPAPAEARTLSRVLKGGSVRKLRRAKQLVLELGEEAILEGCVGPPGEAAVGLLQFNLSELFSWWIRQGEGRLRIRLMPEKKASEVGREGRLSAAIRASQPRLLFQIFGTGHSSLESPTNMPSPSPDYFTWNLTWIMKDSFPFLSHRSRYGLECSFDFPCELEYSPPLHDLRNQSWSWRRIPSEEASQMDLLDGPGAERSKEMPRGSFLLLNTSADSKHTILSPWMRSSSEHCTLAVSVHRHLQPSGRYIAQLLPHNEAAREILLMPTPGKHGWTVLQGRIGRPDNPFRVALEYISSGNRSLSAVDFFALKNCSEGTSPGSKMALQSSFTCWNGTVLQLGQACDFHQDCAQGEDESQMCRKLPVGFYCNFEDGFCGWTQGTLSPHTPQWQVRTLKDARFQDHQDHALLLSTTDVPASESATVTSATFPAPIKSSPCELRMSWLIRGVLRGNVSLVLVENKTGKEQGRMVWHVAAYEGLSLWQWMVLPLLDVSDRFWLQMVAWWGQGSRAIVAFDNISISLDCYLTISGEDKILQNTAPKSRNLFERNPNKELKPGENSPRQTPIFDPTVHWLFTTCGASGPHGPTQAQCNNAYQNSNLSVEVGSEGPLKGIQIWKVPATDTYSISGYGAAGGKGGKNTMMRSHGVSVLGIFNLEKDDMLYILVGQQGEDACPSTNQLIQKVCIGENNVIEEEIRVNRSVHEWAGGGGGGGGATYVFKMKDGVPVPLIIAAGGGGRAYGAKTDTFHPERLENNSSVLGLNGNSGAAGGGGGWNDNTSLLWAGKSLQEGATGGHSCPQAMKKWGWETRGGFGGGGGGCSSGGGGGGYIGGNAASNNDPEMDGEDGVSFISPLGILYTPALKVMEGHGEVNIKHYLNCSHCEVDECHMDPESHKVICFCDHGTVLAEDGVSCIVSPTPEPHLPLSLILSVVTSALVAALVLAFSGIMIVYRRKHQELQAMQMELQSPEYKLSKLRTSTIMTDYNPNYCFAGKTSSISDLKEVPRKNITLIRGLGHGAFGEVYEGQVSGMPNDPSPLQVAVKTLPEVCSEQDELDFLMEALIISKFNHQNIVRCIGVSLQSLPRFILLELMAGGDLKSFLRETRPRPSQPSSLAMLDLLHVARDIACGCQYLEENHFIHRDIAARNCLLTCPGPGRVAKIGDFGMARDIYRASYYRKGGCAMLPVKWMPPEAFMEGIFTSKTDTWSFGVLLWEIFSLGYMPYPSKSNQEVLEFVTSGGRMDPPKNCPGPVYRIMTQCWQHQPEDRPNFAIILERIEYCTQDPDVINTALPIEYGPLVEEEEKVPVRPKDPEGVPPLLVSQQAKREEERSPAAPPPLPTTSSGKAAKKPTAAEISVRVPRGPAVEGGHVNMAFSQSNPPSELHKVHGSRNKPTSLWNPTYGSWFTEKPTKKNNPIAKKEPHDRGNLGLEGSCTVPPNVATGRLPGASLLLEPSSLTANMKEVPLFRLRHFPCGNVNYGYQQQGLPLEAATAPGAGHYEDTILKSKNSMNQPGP
T6 sequence (Q06418 41-890): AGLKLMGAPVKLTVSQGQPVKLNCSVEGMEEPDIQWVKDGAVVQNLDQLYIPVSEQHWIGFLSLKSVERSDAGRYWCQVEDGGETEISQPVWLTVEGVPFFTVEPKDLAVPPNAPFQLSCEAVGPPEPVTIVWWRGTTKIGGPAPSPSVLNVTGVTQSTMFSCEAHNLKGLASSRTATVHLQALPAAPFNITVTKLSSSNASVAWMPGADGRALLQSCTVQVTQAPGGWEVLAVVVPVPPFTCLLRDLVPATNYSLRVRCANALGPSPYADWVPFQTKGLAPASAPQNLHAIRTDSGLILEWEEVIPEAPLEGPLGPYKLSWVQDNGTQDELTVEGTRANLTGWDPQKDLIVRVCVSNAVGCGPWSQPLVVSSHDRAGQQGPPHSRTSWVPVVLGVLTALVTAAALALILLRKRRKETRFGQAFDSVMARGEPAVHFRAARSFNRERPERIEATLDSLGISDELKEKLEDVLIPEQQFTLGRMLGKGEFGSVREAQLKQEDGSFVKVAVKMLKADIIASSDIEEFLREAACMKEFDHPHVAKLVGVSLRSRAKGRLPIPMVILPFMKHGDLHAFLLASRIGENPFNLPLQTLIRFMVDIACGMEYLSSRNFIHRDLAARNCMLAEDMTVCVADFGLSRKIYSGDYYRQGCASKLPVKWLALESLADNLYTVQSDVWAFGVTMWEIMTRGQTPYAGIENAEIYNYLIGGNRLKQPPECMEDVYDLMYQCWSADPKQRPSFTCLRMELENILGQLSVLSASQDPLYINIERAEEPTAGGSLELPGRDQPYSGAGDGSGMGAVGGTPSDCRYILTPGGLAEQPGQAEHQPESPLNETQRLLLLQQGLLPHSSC
T13 sequence (P35968 20-1356): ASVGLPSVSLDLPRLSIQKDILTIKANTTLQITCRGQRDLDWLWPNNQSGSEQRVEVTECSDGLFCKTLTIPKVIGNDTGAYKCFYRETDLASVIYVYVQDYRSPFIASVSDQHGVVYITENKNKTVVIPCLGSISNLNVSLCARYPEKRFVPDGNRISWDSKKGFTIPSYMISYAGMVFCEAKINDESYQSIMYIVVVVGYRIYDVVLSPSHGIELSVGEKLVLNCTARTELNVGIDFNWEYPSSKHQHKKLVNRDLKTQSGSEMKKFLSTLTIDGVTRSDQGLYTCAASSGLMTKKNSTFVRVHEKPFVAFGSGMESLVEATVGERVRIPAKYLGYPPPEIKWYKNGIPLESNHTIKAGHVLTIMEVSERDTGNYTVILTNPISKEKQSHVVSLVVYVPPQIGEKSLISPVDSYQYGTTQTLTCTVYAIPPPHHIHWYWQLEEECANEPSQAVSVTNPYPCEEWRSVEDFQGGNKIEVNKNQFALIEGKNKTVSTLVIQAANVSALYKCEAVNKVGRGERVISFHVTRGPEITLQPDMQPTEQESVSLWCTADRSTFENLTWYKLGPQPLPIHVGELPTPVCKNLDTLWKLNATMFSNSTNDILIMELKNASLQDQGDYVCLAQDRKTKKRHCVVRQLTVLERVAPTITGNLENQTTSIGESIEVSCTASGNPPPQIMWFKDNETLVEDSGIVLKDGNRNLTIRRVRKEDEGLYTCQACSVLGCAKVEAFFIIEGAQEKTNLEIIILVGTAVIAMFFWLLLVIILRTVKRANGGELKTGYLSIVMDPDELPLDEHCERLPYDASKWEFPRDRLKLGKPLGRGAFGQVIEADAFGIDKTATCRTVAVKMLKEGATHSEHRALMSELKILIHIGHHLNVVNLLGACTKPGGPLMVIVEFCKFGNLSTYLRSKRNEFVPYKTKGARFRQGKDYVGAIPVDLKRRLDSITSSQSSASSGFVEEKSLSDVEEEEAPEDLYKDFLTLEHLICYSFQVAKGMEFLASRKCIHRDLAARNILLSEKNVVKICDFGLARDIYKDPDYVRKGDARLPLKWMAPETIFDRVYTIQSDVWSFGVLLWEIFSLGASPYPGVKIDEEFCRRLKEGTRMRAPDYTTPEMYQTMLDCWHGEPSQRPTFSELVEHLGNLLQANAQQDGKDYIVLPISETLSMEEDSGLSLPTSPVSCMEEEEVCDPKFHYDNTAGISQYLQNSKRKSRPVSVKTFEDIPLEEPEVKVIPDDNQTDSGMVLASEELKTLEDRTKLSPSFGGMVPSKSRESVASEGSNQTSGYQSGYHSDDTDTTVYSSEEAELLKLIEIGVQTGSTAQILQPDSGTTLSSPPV

inhibition at 1 µM (BRAF (V599E)): 0% | inhibition at 1 µM (IGF1R): 13.4% | inhibition at 1 µM (ALK): 12.5% | inhibition at 1 µM (PKA): 0% | inhibition at 1 µM (c-Src): 19.3% | inhibition at 1 µM (TYRO3/SKY): 0% | inhibition at 1 µM (ABL1): 20.5% | inhibition at 1 µM (FGFR3): 25.9% | IC50 (GSK3β): 5.85 µM | inhibition at 1 µM (GSK3β; 1 μM, read-out: enzymatic inhibition GSK3b): 85.5% | Selectivity/JNK3 (GSK3β; GSK3β IC50 in comparison with JNK3): >600 fold | inhibition at 1 µM (JAK3): 10.7% | inhibition at 1 µM (c-MER): 2.29% | inhibition at 1 µM (EGFR): 0% | inhibition at 1 µM (KDR/VEGFR2): 5.49% | inhibition at 1 µM (MEK1): 0% | inhibition at 1 µM (CDK1/cyclin A): 0% | inhibition at 1 µM (c-MET): 0% | IC50 (JNK1): > 10 µM | inhibition at 1 µM (JNK1; 1 μM, read-out: enzymatic inhibition JNK1): 9% | selectivity over JNK1 (JNK1; JNK3 versus JNK1): > 1000 fold
SMILES: O=C(C1CC1)N1CCC[C@H](Nc2nccc(-n3c(-c4ccc5c(c4)OCCO5)nc4cc(O)c(O)cc43)n2)C1 [35b, (S)-Cyclopropyl(3-((4-(2-(2,3-dihydrobenzo[b][1,4]dioxin-6-yl)-5,6-dihydroxy-1H-benzo[d]imidazol-1-yl)pyrimidin-2-yl)amino)piperidin-1-yl)methanone]
phosphorylation of c-jun induced by amyloid-β (c-jun): inhibit phosphorylation of c-jun | activation (cleavage) of caspase-3 by amyloid-β (caspase-3): inhibited the activation of caspase-3
